The text below walks through data of ChEMBL document CHEMBL1151463, “Human immunodeficiency virus types 1 and 2 exhibit comparable sensitivities to Zidovudine and other nucleoside analog inhibitors in vitro” (Antimicrob Agents Chemother, 2008).

The subject of experiment [1] is Human immunodeficiency virus 1. As to the kind of experiment: Antiviral activity against wild type HIV1 NL4-3 produced from full length pR9deltaApa infected in human MAGIC-5A cells assessed as inhibition of Lac+ foci expression after 40 hrs. Particulars: Human immunodeficiency virus 1, NL4-3, MAGIC-5A. It is filed as functional, organism-based.
Experiment [2] concerns Human immunodeficiency virus 2. Briefly: Antiviral activity against wild type HIV2 ROD produced from full length pROD9 infected in human MAGIC-5A cells assessed as inhibition of Lac+ foci expression after 40 hrs. Type of experiment: functional, organism-based. The following applies: for pEC50: Human immunodeficiency virus 2, ISOLATE ROD.
Experiment [3] has as its system Human immunodeficiency virus 1. Briefly: Antiviral activity against multinucleoside-resistant HIV1 NL4-3 harboring A62V, V75I, F77L, F116Y, Q151M mutation in viral reverse transcriptase infected in human MAGIC-5A cells assessed as inhibition of Lac+ foci expression after 40 hrs. It is filed as functional, organism-based. The following applies: Human immunodeficiency virus 1, NL4-3, MAGIC-5A.

The subject of experiment [4] is Human immunodeficiency virus 1. As to the kind of experiment: Selectivity ratio of EC50 for multinucleoside-resistant HIV1 NL4-3 harboring A62V, V75I, F77L, F116Y, Q151M mutation in viral reverse transcriptase to EC50 for wild type HIV1 NL4-3. It is filed as functional.
Experiment [5] has as its system Human immunodeficiency virus 2. Briefly: Antiviral activity against recombinant HIV2 ROD carrying HIV2 UC2 reverse transcriptase infected in human MAGIC-5A cells assessed as inhibition of Lac+ foci expression after 40 hrs. Type of experiment: functional, organism-based. The following applies: Human immunodeficiency virus 2, ISOLATE ROD.
The subject of experiment [6] is Human immunodeficiency virus 2. As to the kind of experiment: Antiviral activity against wild type HIV2 CDC310319 infected in human MAGIC-5A cells assessed as inhibition of Lac+ foci expression after 40 hrs. Type of experiment: functional, organism-based.

SMILES strings stand for the structures. pEC50: −log10 of the molar value. Calls of active or inactive are those of the source. The rule behind the calls is not given here.

For orientation: pEC50 means −log10 of the EC50, conventionally taken in molar units. Turning to `Nc1nc(=O)n([C@@H]2CS[C@H](CO)O2)cc1F` [EMTRICITABINE], the pEC50 in experiment [1] is 6.57; in experiment [2], 6.30; in experiment [3], 6.10. In addition, the “Ratio EC50” value in experiment [4] was 3.
In the same order, the values of `Nc1nc(NC2CC2)c2ncn([C@H]3C=C[C@@H](CO)C3)c2n1` [ABACAVIR] are 5.12, 5.14, 4.40 and 5.
In the case of `Cc1cn([C@H]2C=C[C@@H](CO)O2)c(=O)[nH]c1=O` [STAVUDINE], the pEC50 in experiment [1] was 5.26; in experiment [2], 5.15; in experiment [3], 4.10. Besides, the “Ratio EC50” value in experiment [4] was 14.
In the same order, the values of `Nc1ccn([C@@H]2CS[C@H](CO)O2)c(=O)n1` [LAMIVUDINE] are 6.06, 5.70, 5.43 and 4.
Regarding `Cc1cn([C@H]2C[C@H](N=[N+]=[N-])[C@@H](CO)O2)c(=O)[nH]c1=O` [ZIDOVUDINE], the negative logarithm of the EC50 (pEC50) was 6.80 in experiment [1], 6.92 in experiment [2], 7.15 in experiment [5] and 5.15 in experiment [3]. For the same molecule, in experiment [2] (ISOLATE ROD), the Activity entry was “Dose-dependent effect”. In addition, in experiment [6], the result was Active. For the same molecule, the “Ratio EC50” value in experiment [4] worked out at 43.
Take `O=c1[nH]cnc2c1ncn2[C@H]1CC[C@@H](CO)O1` [DIDANOSINE]: the figures for the negative-log EC50 (pEC50) in experiment [1], in experiment [2] and in experiment [3] were 5.33, 5.10 and 4.35, respectively. Also, the “Ratio EC50” value in experiment [4] is reported as 10.
The matching figures for `C[C@H](Cn1cnc2c(N)ncnc21)OCP(=O)(O)O` [TENOFOVIR ANHYDROUS]: 5.14, 5.14, 4.59 and 4.
